Experimental data reported in patent publication US20260354380A1, “PYRAZOLO PESTICIDAL COMPOUNDS” (BASF SE, priority 2022, published 2026).

Tests used:
Assay type in all cases: in vivo
Heliothis virescens = test: Action on Tobacco Budworm (Heliothis virescens); details: 800 ppm; egg and larval mortality; 5 days
Procedure: Example B5: Action on Tobacco Budworm (Heliothis virescens)
For evaluating control of tobacco budworm (Heliothis virescens) the test unit consisted of 96-well-microtiter plates containing an insect diet and 15-25 H. virescens eggs.
The compounds were formulated using a solution containing 75% v/v water and 25% v/v DMSO. Different concentrations of formulated compounds were sprayed onto the insect diet at 10 μl, using a custom-built micro atomizer, at two replications.
After application, microtiter plates were incubated at about 28±1 °C and about 80±5% relative humidity for 5 days. Egg and larval mortality were then visually assessed.

Spodoptera eridania = test: Action on Southern Armyworm (Spodoptera eridania), 2nd Instar Larvae; details: 300 ppm; 2nd instar larvae; 4 days after treatment
Procedure: Example B7: Action on Southern Armyworm (Spodoptera eridania), 2nd Instar Larvae
The active compounds were formulated by a Tecan liquid handler in 100% cyclohexanone as a 10,000 ppm solution supplied in tubes. The 10,000 ppm solution was serially diluted in 100% cyclohexanone to make interim solutions. These served as stock solutions for which final dilutions were made by the Tecan in 50% acetone: 50% water (v/v) into 10 or 20 ml glass vials. A nonionic surfactant (Kinetic®) was included in the solution at a volume of 0.01% (v/v). The vials were then inserted into an automated electrostatic sprayer equipped with an atomizing nozzle for application to plants/insects.
Lima bean plants (variety Sieva) were grown 2 plants to a pot and selected for treatment at the 1st true leaf stage. Test solutions were sprayed onto the foliage by an automated electrostatic plant sprayer equipped with an atomizing spray nozzle. The plants were dried in the sprayer fume hood and then removed from the sprayer. Each pot was placed into perforated plastic bags with a zip closure. About 10 to 11 armyworm larvae were placed into the bag and the bags zipped closed. Test plants were maintained in a growth room at about 25 °C and about 20-40% relative humidity for 4 days, avoiding direct exposure to fluorescent light (24 hour photoperiod) to prevent trapping of heat inside the bags. Mortality and reduced feeding were assessed 4 days after treatment, compared to untreated control plants.
(§1) Compounds disclosed in the document WO2021013561 were prepared according to procedures described therein and their pesticidal activities were determined by procedure analogues to the procedures as described above in examples B6 and B7.

Plutella xylostella = test: Action on Diamond Back Moth (Plutella xylostella), cabbage leaf dip, 3rd instar larvae; details: 300 ppm; 3rd instar larvae; 72 hours after treatment
Procedure: Example B6: Action on Diamond Back Moth (Plutella xylostella)
The active compound is dissolved at the desired concentration in a mixture of 1:1 (v/v) distilled water:acetone. Surfactant (Kinetic® HV) is added at a rate of 0.01% (v/v). The test solution is prepared at the day of use.
Leaves of cabbage were dipped in test solution and air-dried. Treated leaves were placed in petri dishes lined with moist filter paper and inoculated with ten 3rd instar larvae. Mortality was recorded 72 hours after treatment. Feeding damages were also recorded using a scale of 0-100%.
as §1

Anthonomus grandis = test: Action on Boll Weevil (Anthonomus grandis); details: 800 ppm; egg and larval mortality; 5 days
Procedure: Example B3: Action on Boll Weevil (Anthonomus grandis)
For evaluating control of boll weevil (Anthonomus grandis) the test unit consisted of 96-well-microtiter plates containing an insect diet and 5-10 A. grandis eggs.
The compounds were formulated using a solution containing 75% (v/v) water and 25% (v/v) DMSO. Different concentrations of formulated compounds were sprayed onto the insect diet at 5 μl, using a custom-built micro atomizer, at two replications.
After application, microtiter plates were incubated at about 25±1 °C and about 75±5% relative humidity for 5 days. Egg and larval mortality were then visually assessed.

Aedes aegypti = test: whole plant or invertebrate; details: 800 ppm; larvae; 2 days
Procedure: Example B1: Action on Yellow Fever Mosquito (Aedes aegypti)
For evaluating control of yellow fever mosquito (Aedes aegypti) the test unit consisted of 96-well-microtiter plates containing 200 μl of tap water per well and 5-15 freshly hatched A. aegypti larvae.
The active compounds or mixtures were formulated using a solution containing 75% (v/V) water and 25% (v/v) DMSO. Different concentrations of formulated compounds or mixtures were sprayed onto the insect diet at 2.5 μl, using a custom-built micro atomizer, at two replications. For experimental mixtures in these tests identical volumes of both mixing partners at the desired concentrations respectively, were mixed together.
After application, microtiter plates were incubated at 28±1 °C, 80±5% RH for 2 days. Larval mortality was then visually assessed.

SMILES	mortality in comparison with untreated controls (Heliothis virescens)	mortality in comparison with untreated controls (Spodoptera eridania)	mortality in comparison with untreated controls (Plutella xylostella)	mortality in comparison with untreated controls (Anthonomus grandis)	mortality in comparison with untreated controls (Aedes aegypti)
Cc1ccc(C(C)C)c(N2C(=O)CSC2=NC(=O)Nc2ccc(-n3cc(NC(=O)c4ccc(C5CC5(Cl)Cl)cc4)c(C)n3)cc2)c1 (racemic) [Example C-89]	at least 75%	at least 75%	at least 75%	–	–
Cc1ccc(C(C)C)c(N2C(=O)CS/C2=N\C(=O)Nc2ccc(-n3cc(NC(=O)c4ccc(C#N)cc4)c(C)n3)cc2)c1 [Example C-33]	at least 75%	at least 75%	at least 75%	at least 75%	–
COC(C)(C)c1ccc(C(=O)Nc2cn(-c3ccc(NC(=O)N=C4SCC(=O)N4c4cc(C)ccc4C(C)C)cc3)nc2C)cc1 [Example C-61]	at least 75%	–	at least 75%	–	–
CC(=O)c1ccc(C(=O)Nc2cn(-c3ccc(NC(=O)N=C4SCC(=O)N4c4cc(C)ccc4C(C)C)cc3)nc2C)cc1 [Example C-69]	–	at least 75%	–	–	–
Cc1ccc(C(C)C)c(N2C(=O)CSC2=NC(=O)Nc2ccc(-n3cc(NC(=O)c4ccc(C(C)C)cc4)c(C)n3)cc2)c1 [Example C-70]	at least 75%	–	at least 75%	–	at least 50%
Cc1ccc(C(C)C)c(N2C(=O)CSC2=NC(=O)Nc2ccc(-n3cc(NC(=O)c4ccc(C#CC5CC5)cc4)c(C)n3)cc2)c1 [Example C-72]	at least 75%	–	–	–	–
Cc1ccc(C(C)C)c(N2C(=O)CSC2=NC(=O)Nc2ccc(-n3cc(NC(=O)c4ccc(N(C)C)cc4)c(C)n3)cc2)c1 [Example C-75]	at least 75%	at least 75%	at least 75%	at least 75%	–
Cc1ccc(C(C)C)c(N2C(=O)CSC2=NC(=O)Nc2ccc(-n3cc(NC(=O)c4ccc(OCC#N)cc4)c(C)n3)cc2)c1 [Example C-76]	at least 75%	at least 75%	at least 75%	at least 75%	–
Cc1ccc(C(C)C)c(N2C(=O)CSC2=NC(=O)Nc2ccc(-n3cc(NC(=O)c4ccc(C5(F)COC5)cc4)c(C)n3)cc2)c1 [Example C-77]	at least 75%	–	at least 75%	at least 75%	–
Cc1ccc(C(C)C)c(N2C(=O)CSC2=NC(=O)Nc2ccc(-n3cc(NC(=O)c4ccc(CC#N)cc4)c(C)n3)cc2)c1 [Example C-78]	at least 75%	at least 75%	at least 75%	at least 75%	–
CCc1ccc(C(=O)Nc2cn(-c3ccc(NC(=O)N=C4SCC(=O)N4c4cc(C)ccc4C(C)C)cc3)nc2C)cc1 [Example C-80]	at least 75%	–	at least 75%	at least 75%	at least 50%
CSc1ccc(C(=O)Nc2cn(-c3ccc(NC(=O)N=C4SCC(=O)N4c4cc(C)ccc4C(C)C)cc3)nc2C)cc1 [Example C-83]	at least 75%	–	at least 75%	at least 75%	at least 50%
Cc1ccc(C(C)C)c(N2C(=O)CSC2=NC(=O)Nc2ccc(-n3cc(NC(=O)c4cnc(C#N)nc4)c(C)n3)cc2)c1 [Example C-84]	–	–	at least 75%	–	–
CCOc1ccc(C(=O)Nc2cn(-c3ccc(NC(=O)N=C4SCC(=O)N4c4cc(C)ccc4C(C)C)cc3)nc2C)cc1 [Example C-85]	at least 75%	at least 75%	at least 75%	–	–
Cc1ccc(C(C)C)c(N2C(=O)CSC2=NC(=O)Nc2ccc(-n3cc(NC(=O)c4ccc(C5(C#N)CC5)cc4)c(C)n3)cc2)c1 [Example C-86]	at least 75%	at least 75%	at least 75%	–	–
C=Cc1ccc(C(=O)Nc2cn(-c3ccc(NC(=O)N=C4SCC(=O)N4c4cc(C)ccc4C(C)C)cc3)nc2C)cc1 [Example C-87]	at least 75%	–	at least 75%	at least 75%	at least 50%
Cc1ccc(C(C)C)c(N2C(=O)CSC2=NC(=O)Nc2ccc(-n3cc(NC(=O)c4ccc(C#N)nc4)c(C)n3)cc2)c1 [Example C-90]	–	–	at least 75%	at least 75%	–
Cc1ccc(C(C)C)c(N2C(=O)CSC2=NC(=O)Nc2ccc(-n3cc(NC(=O)c4ccc(S(C)(=O)=O)cc4F)c(C)n3)cc2)c1 [Example C-91]	at least 75%	at least 75%	at least 75%	at least 75%	–
Cc1ccc(C(C)C)c(N2C(=O)CSC2=NC(=O)Nc2ccc(-n3cc(NC(=O)c4ccc(C5(C)COC5)cc4)c(C)n3)cc2)c1 [Example C-92]	at least 75%	–	at least 75%	at least 75%	–
Cc1ccc(C(C)C)c(N2C(=O)CSC2=NC(=O)Nc2ccc(-n3nc(C)c(NC(=O)c4ccc(F)cc4)c3C)cc2Cl)c1 [Example C-124]	–	at least 75%	–	–	–
Cc1ccc(C(C)C)c(N2C(=O)CSC2=NC(=O)Nc2ccc(-n3cc(NC(=O)c4ccc(OC(F)(F)F)cc4)c(C)n3)cc2Cl)c1 [Example C-131]	–	at least 75%	–	–	–
Cc1ccc(C(C)C)c(N2C(=O)CSC2=NC(=O)Nc2ccc(-n3cc(NC(=O)c4ccc(Cl)cc4Cl)c(C)n3)cc2Cl)c1 [Example C-132]	–	at least 75%	–	–	–
